Read-outs that look alike come from different tables or passages of the source.
Tests used:
[1] = Hemolysis induced by TSPO ligands (Hb release, absorption at 405 nm); type: cell-based; settings: human, Hb released, mean ± SEM, N = 4, read-out: Hemolysis induced by TSPO ligands treatment
Procedure: Hemolysis leads to hemoglobin (Hb) release into the extracellular milieu, where the Hb content can be quantified by monitoring light absorption, at 405 nm. Using this procedure, we previously observed that the amount of Hb was proportional to the amount of lysed RBCs. The Hb content of the samples was determined as described above. Then, the amount of lytic ATP contributing to [ATPe] was estimated from the total amount of hemolysis cells (calculated as described above) and the intracellular ATP content of the RBCs, which under the experimental conditions was 148 pmol ATP per 10^6 RBCs, as previously reported by our group.

[2] = biological target: T1, TSPO2-expressing RBC membranes (Homo sapiens, UniProt Q5TGU0); experiment: (3H) PK 11195 displacement binding on RBCs; design: endogenous in cells; host or cells: human red blood cells purified from fresh blood of healthy volunteers
T1 sequence (Q5TGU0 1-170): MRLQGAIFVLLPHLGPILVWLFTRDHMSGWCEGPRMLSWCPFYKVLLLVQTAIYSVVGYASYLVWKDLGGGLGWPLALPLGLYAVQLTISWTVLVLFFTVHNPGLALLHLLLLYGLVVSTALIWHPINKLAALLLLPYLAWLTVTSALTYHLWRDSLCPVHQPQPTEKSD
Procedure: The affinity of the ligands for the RBC membranes was assessed by typical displacement experiments. RBCs were exposed to 10 nM (^3H) PK 11195 and increasing concentrations of non-radiolabeled TSPO ligands.
RBCs were washed twice in phosphate buffer saline (PBS) (pH 7.4). Samples were incubated in a final incubation volume of 0.3 mL, in the presence of (^3H) PK 11195 (Perkin Elmer, Courtaboeuf, France; 83.5 Ci/mmol) and increasing concentrations of unlabeled TSPO ligands, at room temperature (RT). After 30 min incubation, assays were stopped by filtration through Whatman GF/C filters. Radioactivity trapped on the filters was determined by liquid scintillation counting (Tri-Carb 2800TR, Perkin-Elmer, Courtaboeuf, France).

human red blood cells [3] = experiment: ATP release from RBCs (luciferase luminometry); type: cell-based; settings: for induction of ATP release (comparison between ligands): 10 or 30 µM ligand, 37 °C, 10% hematocrit; for ligand-induced ATP release in presence of VDAC blocker Bcl-XLBH4: Bcl-XLBH4 10 µM; for ligand-induced ATP release in presence of pannexin-1 inhibitors: carbonexolone 10 µM or probenecid 10 µM
Procedure: Figure 6 TSPO ligand-induced ATP release. ATP release from human red blood cells was measured at 37 °C, 10% Hematocrit, as described in material and methods. Values are the ratio between extracellular ATP (ATPe) levels after and before the addition of TSPO ligands. […] Results are expressed as means ± SEM and considered different from basal (vehicle, unstimulated) values when * p < 0.05; ** p < 0.01 or from those incubated in the presence of Bcl-XLBH4 when ^# p < 0.05 and ^## p < 0.01; N = 7.
Extracellular ATP (ATPe) concentration was measured by quantitative luminometry using firefly luciferase, which catalyzes the oxidation of luciferin in the presence of ATP to produce light as previously described. The ATPe concentration was determined at discrete times (offline). Changes in [ATPe] over time were used to estimate ATP release from RBCs.
10 µL of RBCs at 10% hematocrit were incubated for 10 min, at 37 °C, in the presence of the ligand, or of an equal vehicle volume, with 30 µL of MKB medium. At discrete times, samples were centrifuged at 450× g for 3 min, at RT. Paired samples were taken to assess ATPe and hemolysis. The supernatants were stored at −20 °C, prior to the analysis. Then, 4.5 µL of the supernatant samples were added to 45 µL of the luminometry mix (MKB medium containing 0.01 µM luciferase, 0.2 mM luciferin, and 0.1 mg/mL of Coenzyme A) and placed in the assay chamber of the luminometer to determine the light intensity. At the end of the incubations, the time course of light emission was transformed into the ATPe concentration versus time using a calibration curve, with ATP stock solutions ranging from 1 to 50 µM. The results were expressed as ΔATPe (i.e., the ratio of [ATPe] before and after the addition of a given stimulus).
The increase in [ATPe] due to regulated ATP release was calculated by taking the experimentally-measured [ATPe] and subtracting the estimated [ATPe] due to hemolysis. Except where otherwise stated, the results of ATP release experiments reflected the ATP release from non-lytic origin.

[4] = test system: healthy and P. falciparum-infected RBCs; experiment: TopFluor Cholesterol uptake by RBCs (flow cytometry); type: cell-based, human; settings: 50 µM ligand; for effect on cholesterol uptake: healthy and infected RBCs
Procedure: Figure 5 Cholesterol uptake induced by TSPO ligands. Healthy (A) or infected red blood cells, at 2 to 5% parasitemia (B) were incubated in the presence of TopFluor Cholesterol and 50 µM of TSPO ligands. Cholesterol uptake was assessed at different time points by flow cytometry. MFI values were normalized to vehicle treated cells. Data are presented as mean ± SEM; N = 4. Differences between each ligand and control condition (vehicle) were considered significant when * p < 0.05.
Cholesterol uptake was measured using TopFluor Cholesterol and 50 µM of TSPO ligands. Cholesterol uptake was assessed at different time points by flow cytometry. Mean Fluorescent Intensity (MFI) values were normalized to vehicle treated cells.
Fluorescence measurements in all samples of the P. falciparum’s viability, ZnPPIX uptake, cholesterol uptake, and ROS accumulation assays, were performed with a FACSCanto (BD Biosciences, Rungis, France) and further analyzed with Flowjo-3 software. Infected-RBCs were distinguished from non-infected ones contained in the same culture by TOPRO-3 signaling (1/2, 500), with the negative level established with the same non-infected RBCs used for parasite culture. ZnPPIX (Ex.: 488 nm, Em.: 585/42 nm), TopFluor Cholesterol (Ex.: 495 nm, Em.: 507 nm) and DCFDA (Ex.: 488 nm, Em.: 530/30 nm) levels were measured in both the infected and non-infected RBC populations, results were normalized to the corresponding solvent for each ligand.

[5] = test system: healthy and P. falciparum-infected RBCs; experiment: ZnPPIX uptake in healthy and infected RBCs (flow cytometry); type: cell-based, human; settings: 20 µM ZnPPIX, 50 µM ligand
Procedure: Figure 2 ZnPPIX uptake in healthy and infected RBCs induced by TSPO ligands. Healthy RBC (A) and infected RBC (B) at 2 to 5% parasitemia were incubated in the presence of 20 µM ZnPPIX and 50 µM TSPO ligands, and the uptake of ZnPPIX was assessed at different time points by flow cytometry. MFI values were normalized to background levels for the control and the ligand-treated conditions. Data are presented as the mean ± SEM; N = 7. Statistical analyses were performed for each ligand and the control condition. Differences were considered significant when * p < 0.05; ** p < 0.01; *** p < 0.001.
P. falciparum cultures were incubated at 2–5% parasitemia (synchronized cultures, ring and trophozoite stages) in 200 µL of RPMI 10% Albumax containing 20 µM ZnPPIX. […] Cultures were kept at 37 °C, in the dark, for 3 to 18 h and further analyzed by FACS.
(§1) Fluorescence measurements in all samples of the P. falciparum’s viability, ZnPPIX uptake, cholesterol uptake, and ROS accumulation assays, were performed with a FACSCanto (BD Biosciences, Rungis, France) and further analyzed with Flowjo-3 software. […] ZnPPIX (Ex.: 488 nm, Em.: 585/42 nm), TopFluor Cholesterol (Ex.: 495 nm, Em.: 507 nm) and DCFDA (Ex.: 488 nm, Em.: 530/30 nm) levels were measured in both the infected and non-infected RBC populations, results were normalized to the corresponding solvent for each ligand.

human red blood cells [6] = test system: human red blood cells; design: method as in PMID 30061676; settings: cited from earlier work
[7] = test system: P. falciparum-infected RBCs; experiment: Sorbitol-induced hemolysis in infected RBCs; type: cell-based, human; settings: 50 µM ligand
Procedure: Figure 4 Sorbitol-induced hemolysis is modulated by the TSPO ligands in infected red blood cells. Infected RBCs at 2 to 5 % parasitemia were washed three times in a culture medium, without serum, and resuspended at 50% hematocrit in a media containing 10 μM (A) or 50 μM (B) TSPO ligands. Hemolysis was quantified at several time-points, by absorption at 540 nm wavelength. Data are presented as mean ± SEM; N = 4. Differences between each ligand and control condition (vehicle) were considered significant when p < 0.01.
Sorbitol hemolysis assays were carried as previously described using hemoglobin release to estimate lysis time. Monoexponential functions were fitted to the data from the sorbitol-induced hemolysis (%) (Figure 4), at different times of exposure to the ligands. Half time values (t1/2) for hemolysis were then calculated as t1/2= ln (2)/k, where k is the rate coefficient of the exponential curve.

[8] = test system: TSPO1-enriched rat heart microsomes; design: method as in doi:10.1002/slct.201701565; settings: cited from earlier work
[9] = test system: P. falciparum strain FCR3; experiment: P. falciparum growth inhibition (flow cytometry of parasitemia); type: cell-based, Plasmodium falciparum; settings: 10 and 50 µM
Procedure: Figure 1 TSPO ligands inhibited the P. falciparum growth. Infected RBCs were diluted to 1% parasitemia, and maintained at 1–5%, by dilution, for […]. Percentages of growth-inhibition were obtained, after two parasite cycles, by the flow cytometry analysis of parasitemia, and normalized to the control condition (solvent-treated cells). Data are presented as the mean ± SEM; N = 4. Differences between the control condition and the treatment were considered significant at ** p < 0.01; *** p < 001.
P. falciparum strain FCR3 culture was performed in RPMI 1640 medium containing 10% Albumax, at 5% hematocrit, in a 5% O2, 3% CO2 atmosphere. […] Parasitemia was determined after 48 h and 96 h (after one or two complete parasite’s cycles, respectively) by flow cytometry (FACS), as previously described.
as §1

[10] = displacement of 10 nM (3H) PK 11195, mean ± SEM, N = 3, read-out: IC50, TSPO ligands' affinity for RBC membranes

Row | SMILES | hemolysis ([1]; red blood cells (RBCs)) [%] | IC50 [2, 10] [nM] | induction of ATP release (comparison between ligands) (human red blood cells [3]) | ligand-induced ATP release in presence of VDAC blocker Bcl-XLBH4 (human red blood cells [3]) | ligand-induced ATP release in presence of pannexin-1 inhibitors (human red blood cells [3]) | effect on cholesterol uptake [4] | ZnPPIX uptake increase (effect in words) [5] | non-lytic ATP efflux from RBCs (human red blood cells [6]) | t1/2 of sorbitol-induced hemolysis relative to control samples [7] | hemolysis [1] [%] | other results
1 | CCN(CC)C(=O)Cn1c(=O)n2cc(-c3ccco3)nc2c2ccccc21 [NCS1018, N,N-Diethyl-2-(2-(furan-2-yl)-5-oxomidazo[1-c]quinazolin-6(5H)-yl)acetamide] | 0.72 ± 0.06 | 590 ± 70 | most efficient in inducing ATP release | significantly inhibited | not affected | did not alter cholesterol uptake | no significant effect | triggered non-lytic ATP efflux | eight-fold higher | – | –
2 | CCCN(CCC)C(=O)Cn1c(=O)n2cc(-c3ccccc3)nc2c2ccccc21 [NCS1026, N,N-dipropyl-2-(5-oxo-2-phenylimidazo[1-c]quinazolin-6(5H)-yl)acetamide] | 0.52 ± 0.06 | 280 ± 60 | – | – | – | – | no significant effect | – | three-fold higher | – | inhibition of cholesterol uptake ([4]; 1 h of incubation): 40%; inhibition of cholesterol uptake ([4]; 5 h of incubation): 20%; IC50 [8]: 10 nM
3 | CCC(C)N(C)C(=O)c1cc2ccccc2c(-c2ccccc2Cl)n1 (stereo not drawn) [PK 11195, reference compound] | – | – | – | – | – | – | – | – | three-fold higher | 0.6 ± 0.06 | –
4 | CN1C(=O)CN=C(c2ccc(Cl)cc2)c2cc(Cl)ccc21 [Ro5-4864, reference compound] | – | – | a bit lower | significantly inhibited | not affected | did not alter cholesterol uptake | – | triggered non-lytic ATP efflux | eight-fold higher | 0.68 ± 0.16 | IC50 [2]: 1500 ± 600 nM
5 | CN(C)C(=O)Cc1nn(-c2ccccc2)c(=O)c2c1c1ccc(Cl)cc1n2C [SSR-180,575, reference compound] | 0.7 ± 0.08 | – | – | – | – | did not alter cholesterol uptake | – | – | – | – | anti-plasmodium activity (comparison between ligands) [9]: highest anti-plasmodium activity trend
6 | CC(C)CCC[C@@H](C)[C@H]1CC[C@H]2[C@@H]3CCC4=CC(=NO)CC[C@]4(C)[C@H]3CC[C@]12C [TRO19622] | – | – | – | – | – | – | – | triggered non-lytic ATP efflux | – | – | –

— publication PMC6213633, “Induction of ATP Release, PPIX Transport, and Cholesterol Uptake by Human Red Blood Cells Using a New Family of TSPO Ligands” (International Journal of Molecular Sciences, 2018)
